Experimental data from PMC2932872 (Journal of agricultural and food chemistry, 2010).
Where “and” joins values, the source holds several entries; their conditions need not be identical. Equal entries are not always repeated.

Key:
SH-SY5Y cells [1] = experiment: MTT viability assay; format: cell-based, human; settings: for cytotoxicity (in words): 50 μM, 48 and 72 h
SH-SY5Y cells [2] = experiment: Fate in uptake experiments: OP and degradation products in cell cytosol; format: in vitro ADME, human; settings: for uptake rate constant / amount of parent OP in the cytosol / total uptake (OP and degradation products): 1 μM exposure; for total uptake (OP and degradation products): 48 h (maximum); for OP associated with the membrane fraction (in words): uptake experiments; for Percentage of MPS in cell cytosol (per 10^6 cells) / Relative ratio of MPS in cell cytosol: 1 μM of OP
SH-SY5Y cells [3] = experiment: Preliminary uptake of ^14C-MPS and ^14C-MPO in SH-SY5Y cells; format: in vitro ADME, human; settings: 1 μM exposure; for share of total applied radioactivity that entered the cells: at the most
[4] = Stability of ^14C-MPS and ^14C-MPO in culture media; format: physicochemical; settings: 1 μM; for OP recovered from the media unchanged: 72 h incubation in media, 37 °C
[5] = cited from earlier work
[6] = Fate in uptake experiments: OP and degradation products in culture media; format: in vitro ADME; settings: cells exposed to 1 μM of OP
[7] = molecular target: acetylcholinesterase (AChE, EC 3.1.1.7); settings: cited from earlier work

## COP(=O)(OC)Oc1ccc([N+](=O)[O-])cc1 [MPO, methyl paraoxon]
SH-SY5Y cells [1]
  cytotoxicity (in words): Some cytotoxicity
SH-SY5Y cells [1]; 100 μM, all time points (24, 48, 72 h)
  cytotoxicity: at least 60%
SH-SY5Y cells [2]
  uptake rate constant: 0.025 h⁻¹
  total uptake (OP and degradation products): 1.76 nM/10^6 cells
  OP associated with the membrane fraction (in words): negligible amount
SH-SY5Y cells [2]; 48 h
  amount of parent OP in the cytosol: 0.37 nM/10^6 cells
SH-SY5Y cells [3]
  share of total applied radioactivity that entered the cells: ≤ 5%
SH-SY5Y cells [3]; maximum at 48 h
  maximum level of uptake (total amount of OP inside cells): 46 nM
[4]
  OP recovered from the media unchanged: more than 50%

## COP(=S)(OC)Oc1ccc([N+](=O)[O-])cc1 [MPS, OO, -dimethyl O-4-nitrophenyl phosphorothioate]
[5]
  Log Po/w: 3.0
SH-SY5Y cells [1]
  cytotoxicity (in words): Some cytotoxicity
SH-SY5Y cells [1]; 100 μM, 24 h
  cell viability (in words): no significant decrease in viability
  cytotoxicity: 4–5% and 4%
SH-SY5Y cells [1]; 100 μM, 48 h
  cytotoxicity: ~ 60% and 60%
SH-SY5Y cells [1]; 100 μM, 72 h
  cytotoxicity: 90%
SH-SY5Y cells [2]
  uptake rate constant: 0.054 h⁻¹
  total uptake (OP and degradation products): 1.19 nM/10^6 cells
  OP associated with the membrane fraction (in words): negligible amount
SH-SY5Y cells [2]; 48 h
  amount of parent OP in the cytosol: 0.54 nM/10^6 cells
  Percentage of MPS in cell cytosol (per 10^6 cells): 0.054 ± 0.006%
SH-SY5Y cells [2]; 24 h
  Percentage of MPS in cell cytosol (per 10^6 cells): 0.036 ± 0.001%
  Relative ratio of MPS in cell cytosol: 45.3 ± 1.5
SH-SY5Y cells [2]; 48 h, listed as 14C-MPS
  Relative ratio of MPS in cell cytosol: 46 and 45.8 ± 2.0
SH-SY5Y cells [2]; 72 h
  Percentage of MPS in cell cytosol (per 10^6 cells): 0.043 ± 0.004%
  Relative ratio of MPS in cell cytosol: 43.5 ± 1.8
SH-SY5Y cells [3]
  share of total applied radioactivity that entered the cells: ≤ 5%
SH-SY5Y cells [3]; maximum at 24 h
  maximum level of uptake (total amount of OP inside cells): 13 nM
[6]; 24 h
  Relative ratio of MPS in culture media: 74.3 ± 1.0
[6]; 48 h
  Relative ratio of MPS in culture media: 63.9 ± 0.1
[6]; 72 h
  Relative ratio of MPS in culture media: 52.9 ± 0.8
[4]
  OP recovered from the media unchanged: more than 50%
[4]; after 4 days in media
  ^14C-MPO formed by oxidation in media: less than 1%

## CCOP(=S)(OCC)Oc1ccc([N+](=O)[O-])cc1 [Parathion]
[7]
  IC50 (cholinesterase inhibition): 10^−4 to 10^−5 M

## CCOP(=O)(OCC)Oc1ccc([N+](=O)[O-])cc1 [ethyl paraoxon]
[5]
  Log Po/w: 1.6

## CCOP(=O)(OCC)Oc1ccc([N+](=O)[O-])cc1 [paraoxon]
[7]; read-out: IC50 (inhibition of AChE)
  IC50: 0.01 µM
